# Laboratory results published in US20060252683A1, “Preparation of a peptide compound (SYRAPRO-2000) and its use for the activation of protein phosphatase-2A1 enzyme” (priority 2005, published 2006).
# System: protein phosphatase-2B
# Test: Protein phosphatase-2B assay
# Format: biochemical, pig
# Conditions: various concentrations
# Procedure: Protein phosphatase-1 (squares), protein phosphatase-2A1 (circles), protein phosphatase-2B (triangles) and protein phosphatase-2C (stars) were assayed in the presence of various concentrations of HIV-1 Vpr^71-96. 100 percent protein phosphatase activity is equivalent to 0.005 unit. Similar results were obtained in 3 independent experiments.
# ^32P-labeled phosphorylase a was prepared by phosphorylation of phosphorylase b with phosphorylase kinase as described in (Cohen 1988). ^32P-labeled casein was prepared by phosphorylation of casein with protein kinase A as described in (Tung 1986). Protein phosphatase-1 was purified from rabbit skeletal muscle as described in (Cohen 1988). Protein phosphatase-1 inhibitor-2 was purified from rabbit skeletal muscle as described in (Yang 1981). Protein phosphatase-2A0 and protein phosphatase-2A1 from pig brain and from pig liver were purified as described in (Tung 1985). Protein phosphatase-2A0 and protein phosphatase-2A1 from pig adipose tissue were highly purified by successive chromatography of pig subcutaneous adipose tissue extracts on DEAE Sepharose, Poly-L-lysine Agarose, Sephacryl S-300 HR and thiophosphorylase-a-Sepharose-4B as described in (Tung 1985). Protein phosphatase-2B was purified from pig brain as described in (Tung 1986). […]
smiles,measurement,value
CC[C@H](C)[C@H](NC(=O)[C@H](CCCNC(=N)N)NC(=O)[C@H](CO)NC(=O)[C@H](Cc1c[nH]cn1)NC(=O)[C@H](CCCNC(=N)N)NC(=O)[C@H](CS)NC(=O)CNC(=O)[C@@H](NC(=O)[C@H](CCCNC(=N)N)NC(=O)[C@H](Cc1ccccc1)NC(=O)[C@@H](N)Cc1c[nH]cn1)[C@@H](C)CC)C(=O)NCC(=O)N[C@H](C(=O)N[C@H](C(=O)N[C@@H](CCCNC(=N)N)C(=O)N[C@@H](CCC(N)=O)C(=O)N[C@@H](CCCNC(=N)N)C(=O)N[C@@H](CCCNC(=N)N)C(=O)N[C@@H](C)C(=O)N[C@@H](CCCNC(=N)N)C(=O)N[C@@H](CC(N)=O)C(=O)NCC(=O)N[C@@H](C)C(=O)N[C@@H](CO)C(=O)N[C@@H](CCCNC(=N)N)C(=O)N[C@@H](CO)C(=O)O)[C@@H](C)O)C(C)C [SYRAPRO-2000],effect on activity of protein phosphatase-2B,negligible effect
